Assay results as given in the kinase profiling compilation of Christmann-Franck et al. (2016).

What was measured:
Test in all cases: radiometric filter-binding kinase assay, Kinase HotSpot
Conditions in all cases: compound 0.5 µM; ATP 10 µM
[1] = target: BRSK1 (human) (UniProt Q8TDC3)
[2] = target: FGFR1 (human) (UniProt P11362)
[3] = target: SRPK2 (human) (UniProt P78362)
[4] = target: GSG2 (human) (UniProt Q8TF76)
[5] = target: DYRK1B (human) (UniProt Q9Y463)
[6] = target: RPS6KB1 (human) (UniProt P23443)
[7] = target: CDK5 CDK5R1 p35 (human) (UniProt Q00535+Q15078)
[8] = target: BRSK2 (human) (UniProt Q8IWQ3)
[9] = target: CHEK2 (human) (UniProt O96017)
[10] = target: SRMS (human) (UniProt Q9H3Y6)
[11] = target: ACVR1B (human) (UniProt P36896)
[12] = target: CSNK1G2 (human) (UniProt P78368)
[13] = target: TYRO3 (human) (UniProt Q06418)
[14] = target: MERTK (human) (UniProt Q12866)
[15] = target: RPS6KA6 KD1 KD2 (human) (UniProt Q9UK32)
[16] = target: EPHA2 (human) (UniProt P29317)
[17] = target: CLK1 (human) (UniProt P49759)
[18] = target: MAP2K2 (human) (UniProt P36507)
[19] = target: CDK6 CCND3 (human) (UniProt P30281+Q00534)
[20] = target: RET (human) (UniProt P07949)
[21] = target: FRK (human) (UniProt P42685)
[22] = target: DYRK3 (human) (UniProt O43781)
[23] = target: SRPK1 (human) (UniProt Q96SB4)
[24] = target: DYRK2 (human) (UniProt Q92630)
[25] = target: CAMK2D (human) (UniProt Q13557)
[26] = target: HCK (human) (UniProt P08631)
[27] = target: CSF1R (human) (UniProt P07333)
[28] = target: TEC (human) (UniProt P42680)
[29] = target: TGFBR2 (human) (UniProt P37173)
[30] = target: MAP3K14 (human) (UniProt Q99558)
[31] = target: RAF1 (human) (UniProt P04049)
[32] = target: FLT3 (human) (UniProt P36888)
[33] = target: CSNK1A1 (human) (UniProt P48729)
[34] = target: PLK3 (human) (UniProt Q9H4B4)
[35] = target: DYRK1A (human) (UniProt Q13627)
[36] = target: NEK2 (human) (UniProt P51955)
[37] = target: RPS6KA4 KD2 (human) (UniProt O75676)
[38] = target: VRK1 (human) (UniProt Q99986)
[39] = target: MAP2K1 (human) (UniProt Q02750)
[40] = target: NEK6 (human) (UniProt Q9HC98)
[41] = target: EPHB3 (human) (UniProt P54753)
[42] = target: PRKD2 (human) (UniProt Q9BZL6)

Chain of DYRK3 (human) (O43781 whole entry, looked up): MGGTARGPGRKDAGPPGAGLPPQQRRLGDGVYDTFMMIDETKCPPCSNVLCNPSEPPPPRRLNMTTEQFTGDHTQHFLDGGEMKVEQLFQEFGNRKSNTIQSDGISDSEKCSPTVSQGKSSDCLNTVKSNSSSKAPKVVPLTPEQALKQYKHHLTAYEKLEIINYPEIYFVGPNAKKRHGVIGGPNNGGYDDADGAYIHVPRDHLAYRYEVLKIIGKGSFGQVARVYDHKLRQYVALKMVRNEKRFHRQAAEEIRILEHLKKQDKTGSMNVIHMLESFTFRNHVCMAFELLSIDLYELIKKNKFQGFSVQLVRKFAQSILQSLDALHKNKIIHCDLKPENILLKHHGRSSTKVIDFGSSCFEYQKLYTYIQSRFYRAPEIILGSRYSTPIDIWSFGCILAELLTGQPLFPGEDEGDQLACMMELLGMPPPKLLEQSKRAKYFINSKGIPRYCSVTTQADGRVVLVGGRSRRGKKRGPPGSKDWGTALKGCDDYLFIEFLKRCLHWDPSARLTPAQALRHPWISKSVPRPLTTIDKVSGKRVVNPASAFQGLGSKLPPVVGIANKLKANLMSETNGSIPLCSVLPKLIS
Chain of MAP2K2 (human) (P36507 whole entry, looked up): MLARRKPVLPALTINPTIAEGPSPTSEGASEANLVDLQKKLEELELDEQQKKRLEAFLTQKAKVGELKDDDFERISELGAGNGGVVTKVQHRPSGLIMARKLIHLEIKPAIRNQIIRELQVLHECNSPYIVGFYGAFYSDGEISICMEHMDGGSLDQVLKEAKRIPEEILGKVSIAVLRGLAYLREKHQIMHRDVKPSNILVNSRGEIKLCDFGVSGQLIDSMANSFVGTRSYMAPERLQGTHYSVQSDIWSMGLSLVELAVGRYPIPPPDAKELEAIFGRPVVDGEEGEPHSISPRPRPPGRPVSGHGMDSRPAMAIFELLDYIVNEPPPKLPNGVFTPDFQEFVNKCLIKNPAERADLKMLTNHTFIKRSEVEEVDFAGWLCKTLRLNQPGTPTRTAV
Chain of RPS6KB1 (human) (P23443 whole entry, looked up): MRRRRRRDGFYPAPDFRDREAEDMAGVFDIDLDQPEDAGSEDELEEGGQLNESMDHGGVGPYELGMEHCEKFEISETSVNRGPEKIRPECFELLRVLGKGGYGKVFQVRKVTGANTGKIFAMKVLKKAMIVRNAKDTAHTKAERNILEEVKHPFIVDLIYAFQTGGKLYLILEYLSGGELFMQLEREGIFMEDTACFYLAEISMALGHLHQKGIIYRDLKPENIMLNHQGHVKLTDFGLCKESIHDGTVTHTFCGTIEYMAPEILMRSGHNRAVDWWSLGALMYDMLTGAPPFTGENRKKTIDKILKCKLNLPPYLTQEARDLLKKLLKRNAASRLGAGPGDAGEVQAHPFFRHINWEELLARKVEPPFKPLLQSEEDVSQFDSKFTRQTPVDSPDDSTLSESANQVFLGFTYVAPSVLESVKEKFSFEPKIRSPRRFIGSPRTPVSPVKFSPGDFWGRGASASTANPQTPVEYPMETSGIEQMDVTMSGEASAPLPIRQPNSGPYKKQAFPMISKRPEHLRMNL
Chain of MAP3K14 (human) (Q99558 whole entry, looked up): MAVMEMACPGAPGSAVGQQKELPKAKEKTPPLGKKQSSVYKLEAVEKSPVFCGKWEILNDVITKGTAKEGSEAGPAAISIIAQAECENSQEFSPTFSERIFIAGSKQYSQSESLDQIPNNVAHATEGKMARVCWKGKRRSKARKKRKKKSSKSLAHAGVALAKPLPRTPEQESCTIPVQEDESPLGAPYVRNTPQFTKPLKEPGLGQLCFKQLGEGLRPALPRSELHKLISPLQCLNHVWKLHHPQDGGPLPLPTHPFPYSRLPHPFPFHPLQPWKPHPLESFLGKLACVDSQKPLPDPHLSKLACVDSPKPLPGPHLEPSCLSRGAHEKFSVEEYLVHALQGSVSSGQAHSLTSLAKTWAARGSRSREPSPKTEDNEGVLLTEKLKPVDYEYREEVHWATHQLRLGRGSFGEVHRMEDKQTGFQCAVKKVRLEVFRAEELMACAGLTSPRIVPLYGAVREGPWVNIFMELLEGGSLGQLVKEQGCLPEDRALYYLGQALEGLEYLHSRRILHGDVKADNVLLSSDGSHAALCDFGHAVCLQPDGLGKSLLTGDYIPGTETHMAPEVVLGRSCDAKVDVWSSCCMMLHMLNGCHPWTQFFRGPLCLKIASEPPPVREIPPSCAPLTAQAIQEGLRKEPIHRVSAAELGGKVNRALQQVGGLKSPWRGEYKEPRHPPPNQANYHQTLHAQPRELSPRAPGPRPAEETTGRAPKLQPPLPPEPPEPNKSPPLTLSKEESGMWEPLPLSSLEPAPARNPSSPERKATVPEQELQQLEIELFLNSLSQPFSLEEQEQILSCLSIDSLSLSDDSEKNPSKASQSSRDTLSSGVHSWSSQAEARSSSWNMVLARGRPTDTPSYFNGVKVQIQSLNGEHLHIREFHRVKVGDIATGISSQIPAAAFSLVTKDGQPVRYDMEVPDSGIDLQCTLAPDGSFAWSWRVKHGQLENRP
Chain of HCK (human) (P08631 whole entry, looked up): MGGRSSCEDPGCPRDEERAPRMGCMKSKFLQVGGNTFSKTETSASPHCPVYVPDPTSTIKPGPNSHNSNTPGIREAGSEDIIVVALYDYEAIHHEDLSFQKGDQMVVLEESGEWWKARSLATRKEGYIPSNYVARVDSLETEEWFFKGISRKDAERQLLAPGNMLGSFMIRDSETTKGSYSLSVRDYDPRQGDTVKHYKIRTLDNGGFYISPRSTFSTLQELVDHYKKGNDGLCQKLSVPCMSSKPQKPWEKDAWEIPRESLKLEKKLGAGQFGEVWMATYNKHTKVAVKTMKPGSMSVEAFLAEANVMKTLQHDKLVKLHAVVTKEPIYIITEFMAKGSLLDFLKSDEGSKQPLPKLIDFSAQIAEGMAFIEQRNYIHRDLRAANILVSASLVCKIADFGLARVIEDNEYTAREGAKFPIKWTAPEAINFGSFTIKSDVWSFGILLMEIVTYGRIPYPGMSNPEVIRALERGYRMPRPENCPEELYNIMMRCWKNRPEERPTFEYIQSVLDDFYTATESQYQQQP
Chain of MAP2K1 (human) (Q02750 whole entry, looked up): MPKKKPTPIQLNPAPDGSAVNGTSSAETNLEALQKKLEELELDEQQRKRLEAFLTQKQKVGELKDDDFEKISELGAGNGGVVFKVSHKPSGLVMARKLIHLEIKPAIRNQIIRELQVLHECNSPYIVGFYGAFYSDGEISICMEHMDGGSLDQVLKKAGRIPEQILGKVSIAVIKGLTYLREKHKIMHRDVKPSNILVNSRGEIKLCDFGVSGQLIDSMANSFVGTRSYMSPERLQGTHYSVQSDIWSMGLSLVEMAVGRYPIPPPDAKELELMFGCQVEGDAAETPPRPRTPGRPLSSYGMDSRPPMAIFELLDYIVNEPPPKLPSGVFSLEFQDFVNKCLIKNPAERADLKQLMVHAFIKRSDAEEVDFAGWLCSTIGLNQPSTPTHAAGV
Chain of FGFR1 (human) (P11362 whole entry, looked up): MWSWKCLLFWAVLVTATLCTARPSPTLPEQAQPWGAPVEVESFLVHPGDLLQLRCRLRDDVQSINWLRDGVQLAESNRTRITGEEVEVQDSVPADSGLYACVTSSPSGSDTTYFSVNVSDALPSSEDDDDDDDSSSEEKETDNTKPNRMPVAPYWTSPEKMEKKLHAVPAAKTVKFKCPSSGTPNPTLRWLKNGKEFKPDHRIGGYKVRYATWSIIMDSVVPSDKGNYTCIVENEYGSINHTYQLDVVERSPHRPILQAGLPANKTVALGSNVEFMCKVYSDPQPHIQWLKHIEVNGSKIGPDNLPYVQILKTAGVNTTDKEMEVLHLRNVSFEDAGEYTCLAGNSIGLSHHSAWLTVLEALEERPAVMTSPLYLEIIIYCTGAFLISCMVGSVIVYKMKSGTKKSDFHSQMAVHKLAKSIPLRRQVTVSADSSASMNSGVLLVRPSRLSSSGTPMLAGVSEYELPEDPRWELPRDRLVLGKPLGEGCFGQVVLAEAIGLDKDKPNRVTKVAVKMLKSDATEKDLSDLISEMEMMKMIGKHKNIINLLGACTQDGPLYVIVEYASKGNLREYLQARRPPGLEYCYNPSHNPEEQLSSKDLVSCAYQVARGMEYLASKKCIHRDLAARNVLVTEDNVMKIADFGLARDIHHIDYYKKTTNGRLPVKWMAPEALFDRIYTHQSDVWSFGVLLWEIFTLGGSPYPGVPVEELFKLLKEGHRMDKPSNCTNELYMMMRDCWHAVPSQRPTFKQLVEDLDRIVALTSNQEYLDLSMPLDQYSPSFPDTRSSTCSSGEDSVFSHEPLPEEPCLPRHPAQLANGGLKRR
Chain of RPS6KA4 KD2 (human) (O75676 whole entry, looked up): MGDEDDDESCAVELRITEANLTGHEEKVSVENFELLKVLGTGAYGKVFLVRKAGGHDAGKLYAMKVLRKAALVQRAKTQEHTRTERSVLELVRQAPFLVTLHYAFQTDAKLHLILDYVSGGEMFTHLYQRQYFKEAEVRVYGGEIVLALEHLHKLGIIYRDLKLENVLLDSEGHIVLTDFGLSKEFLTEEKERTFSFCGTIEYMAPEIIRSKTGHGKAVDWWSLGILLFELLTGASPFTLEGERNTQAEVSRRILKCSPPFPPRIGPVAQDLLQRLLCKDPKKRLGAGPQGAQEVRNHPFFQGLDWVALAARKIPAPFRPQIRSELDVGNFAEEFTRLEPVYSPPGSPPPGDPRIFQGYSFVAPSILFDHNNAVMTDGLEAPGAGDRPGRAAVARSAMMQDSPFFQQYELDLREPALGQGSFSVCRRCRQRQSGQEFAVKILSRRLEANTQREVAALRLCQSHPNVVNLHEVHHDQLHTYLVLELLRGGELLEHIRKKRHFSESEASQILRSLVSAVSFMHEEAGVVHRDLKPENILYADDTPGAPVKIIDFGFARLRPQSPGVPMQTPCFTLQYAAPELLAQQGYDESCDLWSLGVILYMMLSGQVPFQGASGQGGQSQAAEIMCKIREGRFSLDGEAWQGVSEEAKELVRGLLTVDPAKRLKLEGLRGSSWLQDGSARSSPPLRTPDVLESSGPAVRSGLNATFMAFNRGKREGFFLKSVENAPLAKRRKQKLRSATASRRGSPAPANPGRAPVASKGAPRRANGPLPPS

Cc1cc2ncc(-c3ccccc3)nc2cc1C
residual activity [1]: 95.1%
residual activity [2]: 91.9%
residual activity [3]: 95.3%
residual activity [4]: 91.5%
residual activity [5]: 106%
residual activity [6]: 88.2%
residual activity [7]: 89.1%
residual activity [8]: 102%
residual activity [9]: 96.8%
residual activity [10]: 93.5%
residual activity [11]: 97.7%
residual activity [12]: 86.5%
residual activity [13]: 90.9%
residual activity [14]: 81.4%
residual activity [15]: 98.2%
residual activity [16]: 103%
residual activity [17]: 95.4%
residual activity [18]: 97.6%
residual activity [19]: 86.7%
residual activity [20]: 88%
residual activity [21]: 99.1%
residual activity [22]: 89.2%
residual activity [23]: 103%
residual activity [24]: 95.9%
residual activity [25]: 88.1%
residual activity [26]: 90.1%
residual activity [27]: 82.1%
residual activity [28]: 98.1%
residual activity [29]: 130%
residual activity [30]: 112%
residual activity [31]: 95.6%
residual activity [32]: 53.6%
residual activity [33]: 95.4%
residual activity [34]: 90.1%
residual activity [35]: 89.9%
residual activity [36]: 75.7%
residual activity [37]: 99.4%
residual activity [38]: 101%
residual activity [39]: 98%
residual activity [40]: 101%
residual activity [41]: 98.4%
residual activity [42]: 96.5%

CSc1nc(-c2ccc(F)cc2)c(-c2ccnc(NC(C)c3ccccc3)c2)[nH]1 (stereo not drawn)
residual activity [1]: 84.6%
residual activity [2]: 97.6%
residual activity [3]: 94.4%
residual activity [4]: 96.3%
residual activity [5]: 84.6%
residual activity [6]: 91.2%
residual activity [7]: 101%
residual activity [8]: 94.8%
residual activity [9]: 94.2%
residual activity [10]: 104%
residual activity [11]: 95.9%
residual activity [12]: 75.6%
residual activity [13]: 108%
residual activity [14]: 93.1%
residual activity [15]: 93.1%
residual activity [16]: 98.8%
residual activity [17]: 96.8%
residual activity [18]: 78.6%
residual activity [19]: 98.3%
residual activity [20]: 101%
residual activity [21]: 100%
residual activity [22]: 94.2%
residual activity [23]: 106%
residual activity [24]: 96.1%
residual activity [25]: 99.3%
residual activity [26]: 83.5%
residual activity [27]: 104%
residual activity [28]: 120%
residual activity [29]: 96.5%
residual activity [30]: 127%
residual activity [31]: 88.9%
residual activity [32]: 92.8%
residual activity [33]: 82.6%
residual activity [34]: 99.7%
residual activity [35]: 97.9%
residual activity [36]: 89.9%
residual activity [37]: 96.5%
residual activity [38]: 94.1%
residual activity [39]: 93.9%
residual activity [40]: 106%
residual activity [41]: 94%
residual activity [42]: 86.4%

CC(C)[C@H](CO)Nc1nc(Nc2cccc(Cl)c2)c2ncn(C(C)C)c2n1
residual activity [1]: 100%
residual activity [2]: 80.6%
residual activity [3]: 53.6%
residual activity [4]: 93.6%
residual activity [5]: 49.9%
residual activity [6]: 90.8%
residual activity [7]: 2.61%
residual activity [8]: 97.8%
residual activity [9]: 88.1%
residual activity [10]: 104%
residual activity [11]: 99.8%
residual activity [12]: 32.4%
residual activity [13]: 98.9%
residual activity [14]: 84.7%
residual activity [15]: 96.8%
residual activity [16]: 89.5%
residual activity [17]: 67.5%
residual activity [18]: 104%
residual activity [19]: 71%
residual activity [20]: 81.4%
residual activity [21]: 90.2%
residual activity [22]: 105%
residual activity [23]: 77%
residual activity [24]: 98.4%
residual activity [25]: 102%
residual activity [26]: 55.6%
residual activity [27]: 96.9%
residual activity [28]: 127%
residual activity [29]: 98.1%
residual activity [30]: 112%
residual activity [31]: 98.9%
residual activity [32]: 16.4%
residual activity [33]: 91.8%
residual activity [34]: 86.4%
residual activity [35]: 65.4%
residual activity [36]: 102%
residual activity [37]: 90.1%
residual activity [38]: 99.5%
residual activity [39]: 96%
residual activity [40]: 91.3%
residual activity [41]: 102%
residual activity [42]: 99.7%

COc1ccc(-c2cnc3c(-c4ccsc4)cnn3c2)cc1
residual activity [1]: 81.5%
residual activity [2]: 80.3%
residual activity [3]: 94.1%
residual activity [4]: 77.2%
residual activity [5]: 78.9%
residual activity [6]: 92.1%
residual activity [7]: 64.5%
residual activity [8]: 94.1%
residual activity [9]: 89.1%
residual activity [10]: 97.4%
residual activity [11]: 100%
residual activity [12]: 82.3%
residual activity [13]: 91.8%
residual activity [14]: 81.2%
residual activity [15]: 90.7%
residual activity [16]: 95.9%
residual activity [17]: 82.8%
residual activity [18]: 95.5%
residual activity [19]: 33.4%
residual activity [20]: 92%
residual activity [21]: 85.6%
residual activity [22]: 89.9%
residual activity [23]: 101%
residual activity [24]: 71.1%
residual activity [25]: 92%
residual activity [26]: 81.9%
residual activity [27]: 53.6%
residual activity [28]: 124%
residual activity [29]: 84.1%
residual activity [30]: 106%
residual activity [31]: 95.5%
residual activity [32]: 11.1%
residual activity [33]: 101%
residual activity [34]: 98%
residual activity [35]: 69.7%
residual activity [36]: 90.2%
residual activity [37]: 98.7%
residual activity [38]: 105%
residual activity [39]: 98.2%
residual activity [40]: 99.3%
residual activity [41]: 99.4%
residual activity [42]: 97.7%
